Experimental data published in PubChem BioAssay (NCI).
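GI50 marks 50% less growth. TGI: total growth inhibition.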

What was measured:
Assay in all cases: NCI-60 cell line screen, 384-well format
K-562 leukemia = system: K-562 leukemia
PC-3 prostate = system: PC-3 prostate
SF-295 CNS = system: SF-295 CNS
SK-MEL-5 melanoma = system: SK-MEL-5 melanoma
SN12C renal = system: SN12C renal
HOP-92 NSCLC = system: HOP-92 NSCLC
DU-145 prostate = system: DU-145 prostate
U251 glioblastoma = system: U251 glioblastoma
A549 NSCLC = system: A549 NSCLC
HT29 colon = system: HT29 colon
CAKI-1 renal = system: CAKI-1 renal
HCT-15 colon = system: HCT-15 colon
LOX IMVI melanoma = system: LOX IMVI melanoma
CCRF-CEM leukemia = system: CCRF-CEM leukemia
MOLT-4 leukemia = system: MOLT-4 leukemia
MDA-MB-231 breast = system: MDA-MB-231 breast
SR leukemia = system: SR leukemia
UACC-62 melanoma = system: UACC-62 melanoma
HOP-62 NSCLC = system: HOP-62 NSCLC
SF-539 CNS = system: SF-539 CNS
NCI-H460 NSCLC = system: NCI-H460 NSCLC
A498 renal = system: A498 renal
OVCAR-8 ovarian = system: OVCAR-8 ovarian
786-0 renal = system: 786-0 renal
OVCAR-4 ovarian = system: OVCAR-4 ovarian
NCI-H226 lung = system: NCI-H226 lung
M14 melanoma = system: M14 melanoma
T-47D breast = system: T-47D breast
IGROV1 ovarian = system: IGROV1 ovarian
HCC-2998 colon = system: HCC-2998 colon
ACHN renal = system: ACHN renal
SK-OV-3 ovarian = system: SK-OV-3 ovarian
SK-MEL-28 melanoma = system: SK-MEL-28 melanoma
NCI-H322M lung = system: NCI-H322M lung
UACC-257 melanoma = system: UACC-257 melanoma
NCI-H522 lung = system: NCI-H522 lung
MDA-MB-435 melanoma = system: MDA-MB-435 melanoma
OVCAR-5 ovarian = system: OVCAR-5 ovarian
BT-549 breast = system: BT-549 breast
RPMI-8226 leukemia = system: RPMI-8226 leukemia
SW-620 colon = system: SW-620 colon
HCT-116 colon = system: HCT-116 colon
HL-60(TB) leukemia = system: HL-60(TB) leukemia
RXF 393 renal = system: RXF 393 renal
MDA-MB-468 breast = system: MDA-MB-468 breast
KM12 colon = system: KM12 colon
COLO 205 colon = system: COLO 205 colon
MALME-3M melanoma = system: MALME-3M melanoma
MCF7 breast = system: MCF7 breast
TK-10 renal = system: TK-10 renal
SK-MEL-2 melanoma = system: SK-MEL-2 melanoma
SNB-19 CNS = system: SNB-19 CNS
SF-268 CNS = system: SF-268 CNS
UO-31 renal = system: UO-31 renal
OVCAR-3 ovarian = system: OVCAR-3 ovarian
NCI-H23 lung = system: NCI-H23 lung
NCI/ADR-RES ovarian = system: NCI/ADR-RES ovarian

COc1cc2c(cc1OC(C)C)[C@H](c1ccc(Cl)cc1)N(c1ccc(N(C)CC3CCC(N4CCN(C)C(=O)C4)CC3)cc1)C(=O)C2 (some centres undefined)
GI50 (K-562 leukemia): 1.76 µM | TGI (K-562 leukemia): 3.17 µM | GI50 (PC-3 prostate): 1.79 µM | TGI (PC-3 prostate): 3.19 µM | GI50 (SF-295 CNS): 1.62 µM | TGI (SF-295 CNS): 2.99 µM | GI50 (SK-MEL-5 melanoma): 1.3 µM | TGI (SK-MEL-5 melanoma): 2.58 µM | GI50 (SN12C renal): 1.81 µM | TGI (SN12C renal): 3.22 µM | GI50 (HOP-92 NSCLC): 1.59 µM | TGI (HOP-92 NSCLC): 2.96 µM | GI50 (DU-145 prostate): 1.92 µM | TGI (DU-145 prostate): 3.51 µM | GI50 (U251 glioblastoma): 1.75 µM | TGI (U251 glioblastoma): 3.16 µM | GI50 (A549 NSCLC): 0.387 µM | TGI (A549 NSCLC): 1.55 µM | GI50 (HT29 colon): 1.79 µM | TGI (HT29 colon): 3.22 µM | GI50 (CAKI-1 renal): 0.146 µM | TGI (CAKI-1 renal): 1.18 µM | GI50 (HCT-15 colon): 1.82 µM | TGI (HCT-15 colon): 3.26 µM | GI50 (LOX IMVI melanoma): 0.946 µM | TGI (LOX IMVI melanoma): 2.13 µM | GI50 (CCRF-CEM leukemia): 1.94 µM | TGI (CCRF-CEM leukemia): 3.36 µM | GI50 (MOLT-4 leukemia): 0.0378 µM | TGI (MOLT-4 leukemia): 0.138 µM | GI50 (MDA-MB-231 breast): 1.8 µM | TGI (MDA-MB-231 breast): 3.2 µM | GI50 (SR leukemia): 0.0291 µM | TGI (SR leukemia): 0.101 µM | GI50 (UACC-62 melanoma): 0.0924 µM | TGI (UACC-62 melanoma): 1.58 µM | GI50 (HOP-62 NSCLC): 2.07 µM | TGI (HOP-62 NSCLC): 3.52 µM | GI50 (SF-539 CNS): 1.74 µM | TGI (SF-539 CNS): 3.14 µM | GI50 (NCI-H460 NSCLC): 0.316 µM | TGI (NCI-H460 NSCLC): 1.42 µM | GI50 (A498 renal): 0.24 µM | TGI (A498 renal): 1.32 µM | GI50 (OVCAR-8 ovarian): 1.82 µM | TGI (OVCAR-8 ovarian): 3.25 µM | GI50 ([…]-0 renal): 1.72 µM | TGI (786-0 renal): 3.12 µM | GI50 (OVCAR-4 ovarian): 1.76 µM | TGI (OVCAR-4 ovarian): 3.18 µM | GI50 (NCI-H226 lung): 0.134 µM | TGI (NCI-H226 lung): 0.374 µM | GI50 (M14 melanoma): 0.943 µM | TGI (M14 melanoma): 2.16 µM | GI50 (T-47D breast): 1.76 µM | TGI (T-47D breast): 3.23 µM | GI50 (IGROV1 ovarian): 1.37 µM | TGI (IGROV1 ovarian): 2.7 µM | GI50 (HCC-2998 colon): 1.73 µM | TGI (HCC-2998 colon): 3.12 µM | GI50 (ACHN renal): 0.243 µM | TGI (ACHN renal): 1.28 µM | GI50 (SK-OV-3 ovarian): 1.58 µM | TGI (SK-OV-3 ovarian): 2.94 µM | GI50 (SK-MEL-28 melanoma): 1.79 µM | TGI (SK-MEL-28 melanoma): 3.19 µM | GI50 (NCI-H322M lung): 1.71 µM | TGI (NCI-H322M lung): 3.27 µM | GI50 (UACC-257 melanoma): 1.35 µM | TGI (UACC-257 melanoma): 2.64 µM | GI50 (NCI-H522 lung): 1.86 µM | TGI (NCI-H522 lung): 3.33 µM | GI50 (MDA-MB-435 melanoma): 2.01 µM | TGI (MDA-MB-435 melanoma): 3.46 µM | GI50 (OVCAR-5 ovarian): 1.85 µM | TGI (OVCAR-5 ovarian): 3.31 µM | GI50 (BT-549 breast): 1.58 µM | TGI (BT-549 breast): 2.94 µM | GI50 (RPMI-8226 leukemia): 1.53 µM | TGI (RPMI-8226 leukemia): 2.88 µM | GI50 (SW-620 colon): 1.91 µM | TGI (SW-620 colon): 3.36 µM | GI50 (HCT-116 colon): 0.349 µM | TGI (HCT-116 colon): 1.49 µM | GI50 (HL-60(TB) leukemia): 1.96 µM | TGI (HL-60(TB) leukemia): 3.38 µM | GI50 (RXF 393 renal): 1.69 µM | TGI (RXF 393 renal): 3.07 µM | GI50 (MDA-MB-468 breast): 2.03 µM | TGI (MDA-MB-468 breast): 3.47 µM | GI50 (KM12 colon): 1.9 µM | TGI (KM12 colon): 3.35 µM | GI50 (COLO 205 colon): 1.86 µM | TGI (COLO 205 colon): 3.29 µM | GI50 (MALME-3M melanoma): 1.18 µM | TGI (MALME-3M melanoma): 2.43 µM | GI50 (MCF7 breast): 0.378 µM | TGI (MCF7 breast): 1.57 µM | GI50 (TK-10 renal): 1.82 µM | TGI (TK-10 renal): 3.31 µM | GI50 (SK-MEL-2 melanoma): 1.81 µM | TGI (SK-MEL-2 melanoma): 3.21 µM | GI50 (SNB-19 CNS): 1.94 µM | TGI (SNB-19 CNS): 3.49 µM | GI50 (SF-268 CNS): 1.9 µM | TGI (SF-268 CNS): 3.34 µM | GI50 (UO-31 renal): 0.288 µM | TGI (UO-31 renal): 1.31 µM | GI50 (OVCAR-3 ovarian): 1.69 µM | TGI (OVCAR-3 ovarian): 3.08 µM | GI50 (NCI-H23 lung): 1.93 µM | TGI (NCI-H23 lung): 4.37 µM | GI50 (NCI/ADR-RES ovarian): 1.77 µM | TGI (NCI/ADR-RES ovarian): 3.22 µM
